The experiment deals with Type III protein secretion of the chimeric SopE‘-’Bla polypeptide (SPI1 type III protein secretion system). Nature of the experiment: Primary assay: Type III protein secretion of the chimeric SopE'-'Bla polypeptide by Salmonella enterica. It is filed as cell-based. Conditions: read-out: SopE IC50(μM). From the text: Primary assay: Type III protein secretion of the chimeric SopE‘-’Bla polypeptide by Salmonella enterica. This procedure is a cell-based assay that measures the type III-dependent secretion by Salmonella enterica of a plasmid-encoded chimeric polypeptide whose synthesis can be regulated, and which is endowed with an enzymatic activity that can be monitored colorimetrically by hydrolysis of a substrate that is unable to penetrate into the bacterial cytoplasm within the time constraints of the reaction. Thus, the colormetric reaction is not influenced by SopE‘-’Bla polypeptide in the bacterial cytplasm. Instead, it effectively measures the amount of polypeptide that has been secreted from the S. enterica cytoplasm to the extracellular medium via type III system protein secretion.
The SopE‘-’Bla recombinant polypeptide consists of two functionally distinct domains spliced together. The N-terminus domain is encoded by a polynucleotide region specifying the signal for type III secretion of the SopE polypeptide of S. enterica, an effector of the SPI1 type III protein secretion system. The C-terminus domain of SopE‘-’Bla consists of a 263 amino acid peptide sequence that corresponds to the TEM-1 β-lactamase expressed by plasmid pBR322 but without its N-terminal signal sequence. The TEM-1 β-lactamase part of the SopE‘-’Bla chimeric polypeptide is used as a reporter enzyme. It is capable of hydrolyzing nitrocefin resulting in a product whose accumulation can be monitored by colorimetric detection. The secretion of the SopE‘-’Bla chimeric polypeptide from the cytoplasm to the extracellular medium is dependent on type III protein secretion.
For this procedure, cells grown under conditions known to favor a functional SPI1 secretion system are induced for expression of the SopE‘-’Bla protein and grown either in the presence or in the absence of putative inhibitors for determined time. Nitrocefin is then added to the various cultures and its hydrolysis are used for quantitation. An inhibitor of Type III protein secretion is generally a compound that reduces the signal of the enzymatic reaction by decreasing the amount of SopE‘-’Bla secreted into the extracellular medium.
What is called IC50 is the concentration that inhibits the measured activity by half. Turning to `O=C(NC(COCc1ccccc1)C(=O)O)/C(=C\c1cccc(Oc2ccc(Cl)cc2)c1)NC(=O)c1ccc(C(F)(F)F)cc1` (stereo in doubt) [Compound 31, (S)-3-Benzyloxy-2-[3-[3-(4-chlorophenoxy)phenyl]-2-(4-trifluoromethyl-benzoylamino)acryloylamino]propionic acid], the IC50 was 7.7 µM. As for `COc1ccc(/C=C(/NC(=O)c2ccc(-c3ccccc3)cc2)C(=O)N[C@@H](Cc2ccc(Cl)cc2)C(=O)O)cc1OC` (stereo in doubt) [Compound 50, 2-[2-[(Biphenyl-4-carbonyl)amino]-3-(3,4-dimethoxyphenyl)acryloylamino]-3-(4-chlorophenyl)propionic acid], the IC50 came out at 79.4 µM.

Turning to `O=C(O)[C@H](Cc1ccc(Cl)cc1)NC(=O)N(CCc1ccc(-c2ccccc2)cc1)Cc1ccc(Cl)c(Cl)c1` (stereo in doubt) [Compound 86, 2-[3-(2-Biphenyl-4-yl-ethyl)-3-(3,4-dichlorobenzyl)ureido]-3-(4-chlorophenyl)-propionic acid], the IC50 was 1.1 µM. With `O=C(NCC1CCCO1)/C(=C\c1ccc(-c2ccccc2)cc1)NC(=O)c1ccc(C(F)(F)F)cc1` (centres unmarked) [Compound 2, N-{2-Biphenyl-4-yl-1-[(tetrahydro-furan-2-yl-methyl)carbamyl]vinyl}-4-trifluoromethylbenzamide] the figure was 69 µM; with `O=C(N[C@@H](CSCc1ccccc1)C(=O)O)/C(=C\c1cccc2ccccc12)NC(=O)c1ccc(C(F)(F)F)cc1` [Compound 3, (R)-3-Benzylsulfanyl-2-[3-naphthalen-1-yl-2-(4-trifluoromethylbenzoylamino)-acryloylamino]propionic acid], 30.3 µM; with `O=C(NC(Cc1ccc(Cl)cc1)C(=O)O)/C(=C\c1cccc(C(F)(F)F)c1)CC(=O)c1ccc(-c2ccccc2)cc1` (centres unmarked) [Compound 4, 2-[2-(2-Biphenyl-4-yl-2-oxoethyl)-3-(3-trifluoromethylphenyl)acryloylamino]-3-(4-chlorophenyl)propionic acid], 1.1 µM. With `O=C(NC(Cc1ccc(Cl)cc1)C(=O)O)/C(=C\c1ccc(Cl)c(C(F)(F)F)c1)CC(=O)c1ccc(-c2ccccc2)cc1` (centres unmarked) [Compound 5, 2-[2-(2-Biphenyl-4-yl-2-oxoethyl)-3-(4-chloro-3-trifluoromethylphenyl)-acryloylamino]-3-(4-chlorophenyl)propionic acid] the figure was 0.8 µM; with `O=C(NN(Cc1ccc(-c2ccccc2)cc1)C(=O)N[C@@H](CSCc1ccccc1)C(=O)O)c1ccc(C(F)(F)F)cc1` [Compound 8, 4-Trifluoromethylbenzoic acid-N′-[(biphenyl-4-yl)methyl]-N′-[[[(2-benzylthio)-1-carboxyethyl]amino]carbonyl]hydrazide], 10 µM. In the case of `O=C(NN(Cc1cccc(Oc2ccccc2)c1)C(=O)N[C@@H](CSCc1ccccc1)C(=O)O)c1ccc(C(F)(F)F)cc1` [Compound 9, 4-Trifluoromethylbenzoic acid-N′-[(3-phenoxyphenyl)methyl]-N′-[[[(2-benzylthio)-1-carboxyethyl]amino]carbonyl]hydrazide], the IC50 was 15 µM. For `O=C(NN(Cc1cccc(Oc2ccccc2)c1)C(=O)N[C@@H](COCc1ccccc1)C(=O)O)c1ccc(C(F)(F)F)cc1` [Compound 10, 4-Trifluoromethylbenzoic acid-N′-[(3-phenoxyphenyl)methyl]-N′-[[[(2-benzyloxy)-1-carboxyethyl]amino]carbonyl]hydrazide], the IC50 amounted to 22 µM. The result for `O=C(NN(Cc1ccc(OC(F)(F)F)cc1)C(=O)N[C@@H](CSCc1ccccc1)C(=O)O)c1ccc(C(F)(F)F)cc1` [Compound 11, 4-Trifluoromethylbenzoic acid-N′-[(4-trifluoromethoxyphenyl)methyl]-N′-[[[(2-benzylthio)-1-carboxyethyl]amino]carbonyl]hydrazide] reads 49 µM; that for `O=C(NN(Cc1ccc(Oc2ccccc2)cc1)C(=O)N[C@@H](CSCc1ccccc1)C(=O)O)c1ccc(C(F)(F)F)cc1` [Compound 12, 4-Trifluoromethylbenzoic acid-N′-[(4-phenoxyphenyl)methyl]-N′-[[[(2-benzylthio)-1-carboxyethyl]amino]carbonyl]hydrazide], 12.5 µM; that for `O=C(O)C[C@H](Cc1ccc(Cl)cc1)NC(=O)/C(=C\c1ccc(-c2ccccc2)cc1)NC(=O)c1ccc(C(F)(F)F)cc1` [Compound 13, (S)-3-[3-Biphenyl-4-yl-2-(4-trifluoromethylbenzoylamino)acryloylamino]-4-(4-chlorophenyl)butyric acid], 5.2 µM. With `O=C(N[C@@H](COCc1ccccc1)C(=O)O)C(=Cc1ccc(Oc2ccccc2)cc1)NC(=O)c1ccc(C(F)(F)F)cc1` [Compound 15, (S)-3-Benzyloxy-2-[3-(4-phenoxyphenyl)-2-(4-trifluoromethylbenzoylamino)-acryloylamino]propionic acid] the figure was 11 µM.

With `O=C(N[C@@H](Cc1ccc(Cl)cc1)C(=O)O)/C(=C\c1ccc(Oc2ccccc2)cc1)NC(=O)c1ccc(C(F)(F)F)cc1` [Compound 16, (S)-3-(4-Chlorophenyl)-2-[3-(4-phenoxyphenyl)-2-(4-trifluoromethylbenzoylamino)-acryloylamino]propionic acid], the IC50 is 4.9 µM. On to `O=C(N[C@H](COCc1ccccc1)C(=O)O)/C(=C\c1ccc(-c2ccccc2)cc1)NC(=O)c1ccc(C(F)(F)F)cc1` [Compound 24, (R)-3-Benzyloxy-2-[3-biphenyl-4-yl-2-(4-trifluoromethylbenzoylamino)-acryloylamino]propionic acid], for which the IC50 worked out at 12.5 µM. As for `O=C(N[C@@H](Cc1ccc(Cl)cc1)C(=O)O)/C(=C\c1ccc(-c2ccccc2)cc1)NC(=O)c1ccc(C(F)(F)F)cc1` [Compound 25, (S)-2-[3-Biphenyl-4-yl-2-(4-trifluoromethylbenzoylamino)acryloylamino]-3-(4-chlorophenyl)propionic acid], the IC50 came to 6 µM. With `O=C(N[C@@H](Cc1ccc(Cl)cc1)C(=O)O)/C(=C\c1cccc(C(F)(F)F)c1)NC(=O)c1ccc(Cl)cc1` [Compound 27, (S)-2-[2-(4-Chlorobenzoylamino)-3-(3-trifluoromethylphenyl)acryloylamino]-3-(4-chlorophenyl)propionic acid] the figure was 87 µM; with `O=C(N[C@H](Cc1ccc(Cl)cc1)C(=O)O)/C(=C\c1cccc(C(F)(F)F)c1)NC(=O)c1ccc(Cl)cc1` [Compound 28, (R)-2-[2-(4-Chlorobenzoylamino)-3-(3-trifluoromethylphenyl)acryloylamino]-3-(4-chlorophenyl)propionic acid], 86 µM; with `O=C(N[C@@H](COCc1ccccc1)C(=O)O)/C(=C\c1ccc(Cl)c(Cl)c1)NC(=O)c1ccc(Cl)cc1` [Compound 29, (S)-3-Benzyloxy-2-[2-(4-chlorobenzoylamino)-3-(3,4-dichlorophenyl)-acryloylamino]propionic acid], 70 µM. The result for `CC(C)c1ccc(/C=C(/NC(=O)c2ccc(C(F)(F)F)cc2)C(=O)N[C@@H](COCc2ccccc2)C(=O)O)cc1` [Compound 32, (S)-3-Benzyloxy-2-[3-(4-isopropylphenyl)-2-(4-trifluoromethylbenzoylamino)-acryloylamino]propionic acid] reads 34.8 µM.

Consider `O=C(N[C@H](Cc1ccc(Cl)cc1)C(=O)O)/C(=C\c1cccc(C(F)(F)F)c1)NC(=O)c1ccc(OC(F)(F)F)cc1` [Compound 36, (R)-3-(4-Chlorophenyl)-2-[2-(4-trifluoromethoxybenzoylamino)-3-(3-trifluoromethylphenyl)acryloylamino]propionic acid], for which the IC50 came out at 21.6 µM. With `O=C(N[C@@H](Cc1ccc(Cl)cc1)C(=O)O)/C(=C\c1cccc(C(F)(F)F)c1)NC(=O)c1ccc(OC(F)(F)F)cc1` [Compound 37, (S)-3-(4-Chlorophenyl)-2-[2-(4-trifluoromethoxybenzoylamino)-3-(3-trifluoromethylphenyl)acryloylamino]propionic acid] the figure was 25 µM; with `O=C(N[C@@H](CSCc1ccccc1)C(=O)O)/C(=C\c1ccc(Br)cc1)NC(=O)c1ccc(C(F)(F)F)cc1` [Compound 41, (R)-3-Benzylsulfanyl-2-[3-(4-bromophenyl)-2-(4-trifluoromethylbenzoylamino)-acryloylamino]propionic acid], 48 µM; with `CN(C(=O)/C(=C\c1cccc(C(F)(F)F)c1)NC(=O)c1ccc(-c2ccccc2)cc1)[C@H](Cc1ccc(Cl)cc1)C(=O)O` [Compound 42, (R)-2-{[2-[(Biphenyl-4-carbonyl)amino]-3-(3-trifluoromethylphenyl)acryloyl]-methylamino}-3-(4-chlorophenyl)propionic acid], 15 µM. The result for `O=C(N[C@@H](CSCc1ccccc1)C(=O)O)/C(=C\c1cccc(Oc2ccccc2)c1)NC(=O)c1ccc(Cl)cc1` [Compound 43, (R)-3-Benzylsulfanyl-2-[2-(4-chlorobenzoylamino)-3-(3-phenoxyphenyl)-acryloylamino]propionic acid] reads 34.2 µM.

(Values after patent US20050250819A1 (priority 2004, published 2005).)
